Test results from patent US9365619B2, “IgG-binding peptide and method for detecting and purifying IgG using same” (Otsuka Chemical Co., Ltd., priority 2011, dated 2016).
Read-outs that look alike come from different tables or passages of the source. Bridge positions count the residues as written; N and C are the ends. Peptide text beside a SMILES is read from it.

Target: human IgG
Test: Surface plasmon resonance (SPR) analysis of synthetic peptide binding to human IgG
Details: for affinity compared with the original peptide, in words: compared with GFc-C35-3/15; for fold increase in affinity (fold decrease in Kd value): relative to original peptide GFc-C35-3/15
Description: In order to narrow down the amino acid region to be studied, a peptide in which one amino acid was deleted from each end of GFc-C35 (GFc-C35-2/16) and a peptide in which two amino acids were deleted from each end of CFc-C35 (GFc-C35-3/15) were synthesized. Among these peptides, based on the GFc-C35-3/15 synthetic peptide, the effect of the introduction of amino acid mutations on affinity was evaluated. That is, the contribution of each amino acid substitution to affinity was evaluated by synthesizing peptides substituted with frequently or occasionally observed amino acids obtained from the phage libraries and subjecting the resulting synthetic peptides to binding analysis.
Based on the synthetic peptide C35A, peptides substituted with amino acids observed at high frequency in the aforementioned phage libraries were synthesized by introducing amino acid mutations, and in a similar manner to the above, their binding to human IgG was analyzed by surface plasmon resonance (SPR) analysis to evaluate the contribution of each amino acid substitution to affinity.

[1] = SPR, synthetic peptide binding to human IgG, read-out: Kd
[2] = SPR sensorgram analysis, human IgG
[3] = SPR sensorgram analysis, human IgG, read-out: affinity (Kd value)

SMILES | Kd [1] [µM] | affinity compared with the original peptide, in words | further results
CC(C)C[C@@H]1NC(=O)[C@H](CC(N)=O)NC(=O)CNC(=O)[C@H](CC(N)=O)NC(=O)[C@H]([C@@H](C)O)NC(=O)[C@H](Cc2ccc(O)cc2)NC(=O)[C@H]([C@@H](C)O)NC(=O)[C@@H](NC(=O)[C@@H](N)CCCNC(=N)N)CSSC[C@@H](C(=O)N[C@H](C(N)=O)[C@@H](C)O)NC(=O)[C@H](Cc2c[nH]c3ccccc23)NC(=O)[C@H](C(C)C)NC1=O [GFc-C35-3/15 (D3R), RCTYTNGNLVWCT] (H-RCTYTNGNLVWCT-NH2; disulfide 2-12) | 69 | an increase in affinity | –
CSCC[C@@H]1NC(=O)[C@H](CC(N)=O)NC(=O)CNC(=O)[C@H](CC(N)=O)NC(=O)[C@H]([C@@H](C)O)NC(=O)[C@H](Cc2ccc(O)cc2)NC(=O)[C@H]([C@@H](C)O)NC(=O)[C@@H](NC(=O)[C@@H](N)CC(=O)O)CSSC[C@@H](C(=O)N[C@H](C(N)=O)[C@@H](C)O)NC(=O)[C@H](Cc2c[nH]c3ccccc23)NC(=O)[C@H](C(C)C)NC1=O [GFc-C35-3/15 (L11M), DCTYTNGNMVWCT] (H-DCTYTNGNMVWCT-NH2; disulfide 2-12) | 280 | a decrease in affinity | –
CC(C)C[C@@H]1NC(=O)[C@H](CC(N)=O)NC(=O)CNC(=O)[C@H](CC(C)C)NC(=O)[C@H]([C@@H](C)O)NC(=O)[C@H](Cc2ccc(O)cc2)NC(=O)[C@H]([C@@H](C)O)NC(=O)[C@@H](NC(=O)[C@@H](N)CC(=O)O)CSSC[C@@H](C(=O)N[C@H](C(N)=O)[C@@H](C)O)NC(=O)[C@H](Cc2c[nH]c3ccccc23)NC(=O)[C@H](C(C)C)NC1=O [GFc-C35-3/15 (N8L), DCTYTLGNLVWCT] (H-DCTYTLGNLVWCT-NH2; disulfide 2-12) | 260 | greatly degreased affinity | –
CC(C)C[C@@H]1NC(=O)[C@H](CC(N)=O)NC(=O)CNC(=O)[C@H](CCCNC(=N)N)NC(=O)[C@H]([C@@H](C)O)NC(=O)[C@H](Cc2ccc(O)cc2)NC(=O)[C@H]([C@@H](C)O)NC(=O)[C@@H](NC(=O)[C@@H](N)CC(=O)O)CSSC[C@@H](C(=O)N[C@H](C(N)=O)[C@@H](C)O)NC(=O)[C@H](Cc2c[nH]c3ccccc23)NC(=O)[C@H](C(C)C)NC1=O [GFc-C35-3/15 (N8R), DCTYTRGNLVWCT] (H-DCTYTRGNLVWCT-NH2; disulfide 2-12) | 8 | greatly increased affinity | fold increase in affinity (fold decrease in Kd value): approximately 18 fold
CC(C)C[C@@H]1NC(=O)[C@H](CC(=O)O)NC(=O)CNC(=O)[C@H](CC(N)=O)NC(=O)[C@H]([C@@H](C)O)NC(=O)[C@H](Cc2ccc(O)cc2)NC(=O)[C@H]([C@@H](C)O)NC(=O)[C@@H](NC(=O)[C@@H](N)CC(=O)O)CSSC[C@@H](C(=O)N[C@H](C(N)=O)[C@@H](C)O)NC(=O)[C@H](Cc2c[nH]c3ccccc23)NC(=O)[C@H](C(C)C)NC1=O [GFc-C35-3/15 (N10D), DCTYTNGDLVWCT] (H-DCTYTNGDLVWCT-NH2; disulfide 2-12) | 80 | more or less improved affinity | –
CC(C)C[C@@H]1NC(=O)[C@H](CCC(=O)O)NC(=O)CNC(=O)[C@H](CC(N)=O)NC(=O)[C@H]([C@@H](C)O)NC(=O)[C@H](Cc2ccc(O)cc2)NC(=O)[C@H]([C@@H](C)O)NC(=O)[C@@H](NC(=O)[C@@H](N)CC(=O)O)CSSC[C@@H](C(=O)N[C@H](C(N)=O)[C@@H](C)O)NC(=O)[C@H](Cc2c[nH]c3ccccc23)NC(=O)[C@H](C(C)C)NC1=O [GFc-C35-3/15 (N10E), DCTYTNGELVWCT] (H-DCTYTNGELVWCT-NH2; disulfide 2-12; N-terminus and C-terminus assumed) | 26 | higher affinity than the original peptide | –
CC(C)C[C@@H]1NC(=O)[C@H](CCC(N)=O)NC(=O)CNC(=O)[C@H](CC(N)=O)NC(=O)[C@H]([C@@H](C)O)NC(=O)[C@H](Cc2ccc(O)cc2)NC(=O)[C@H]([C@@H](C)O)NC(=O)[C@@H](NC(=O)[C@@H](N)CC(=O)O)CSSC[C@@H](C(=O)N[C@H](C(N)=O)[C@@H](C)O)NC(=O)[C@H](Cc2c[nH]c3ccccc23)NC(=O)[C@H](C(C)C)NC1=O [GFc-C35-3/15 (N10Q), DCTYTNGQLVWCT] (H-DCTYTNGQLVWCT-NH2; disulfide 2-12; N-terminus and C-terminus assumed) | 160 | almost equal affinity | –
CC(C)C[C@@H]1NC(=O)[C@H](CCCNC(=N)N)NC(=O)CNC(=O)[C@H](CC(N)=O)NC(=O)[C@H]([C@@H](C)O)NC(=O)[C@H](Cc2ccc(O)cc2)NC(=O)[C@H]([C@@H](C)O)NC(=O)[C@@H](NC(=O)[C@@H](N)CC(=O)O)CSSC[C@@H](C(=O)N[C@H](C(N)=O)[C@@H](C)O)NC(=O)[C@H](Cc2c[nH]c3ccccc23)NC(=O)[C@H](C(C)C)NC1=O [GFc-C35-3/15 (N10R), DCTYTNGRLVWCT] (H-DCTYTNGRLVWCT-NH2; disulfide 2-12) | 42 | higher affinity than the original peptide | –
CC(C)C[C@@H]1NC(=O)[C@H](CC(N)=O)NC(=O)CNC(=O)[C@H](CC(N)=O)NC(=O)[C@H]([C@@H](C)O)NC(=O)[C@H](Cc2ccc(O)cc2)NC(=O)[C@H](C)NC(=O)[C@@H](NC(=O)[C@@H](N)CC(=O)O)CSSC[C@@H](C(=O)N[C@H](C(N)=O)[C@@H](C)O)NC(=O)[C@H](Cc2c[nH]c3ccccc23)NC(=O)[C@H](C(C)C)NC1=O [GFc-C35-3/15 (T5A), DCAYTNGNLVWCT] (H-DCAYTNGNLVWCT-NH2; disulfide 2-12) | 61 | highest affinity | –
CC(C)C[C@@H]1NC(=O)[C@H](CCC(=O)O)NC(=O)CNC(=O)[C@H](CCCNC(=N)N)NC(=O)[C@H](Cc2c[nH]cn2)NC(=O)[C@H](Cc2ccc(O)cc2)NC(=O)[C@H](C)NC(=O)[C@@H](NC(=O)[C@@H](N)CC(=O)O)CSSC[C@@H](C(=O)N[C@H](C(N)=O)[C@@H](C)O)NC(=O)[C@H](Cc2c[nH]c3ccccc23)NC(=O)[C@H](C(C)C)NC1=O [GFc-C35-3/15 (T5A, T7H, N8R, N10E), DCAYHRGELVWCT] (H-DCAYHRGELVWCT-NH2; disulfide 2-12) | – | – | association rate constant ka [2]: 4.6×10^5 M^−1S^−1; dissociation rate constant kd [2]: 2.5×10^−2 S^−1; Kd [3]: 0.054 µM; fold increase in affinity (fold decrease in Kd value): approximately 2400 fold
CC(C)C[C@@H]1NC(=O)[C@H](CCC(=O)O)NC(=O)CNC(=O)[C@H](CCCNC(=N)N)NC(=O)[C@H](Cc2c[nH]cn2)NC(=O)[C@H](Cc2c[nH]c3ccccc23)NC(=O)[C@H](C)NC(=O)[C@@H](NC(=O)[C@@H](N)CC(=O)O)CSSC[C@@H](C(=O)N[C@H](C(N)=O)[C@@H](C)O)NC(=O)[C@H](Cc2c[nH]c3ccccc23)NC(=O)[C@H](C(C)C)NC1=O [GFc-C35-3/15 (T5A, Y6W, T7H, N8R, N10E), DCAWHRGELVWCT] | 0.26 | – | association rate constant ka [2]: 5.4×10^4 M^−1S^−1; dissociation rate constant kd [2]: 1.4×10^−2 S^−1; Kd [3]: 0.257 µM; association rate constant ka relative to GFc-C35-3/15 (T5A, T7H, N8R, N10E) (SPR, human IgG): ⅛
CC(C)C[C@@H]1NC(=O)[C@H](CC(N)=O)NC(=O)CNC(=O)[C@H](CC(N)=O)NC(=O)[C@H]([C@@H](C)O)NC(=O)[C@H](Cc2ccc(O)cc2)NC(=O)[C@H](CO)NC(=O)[C@@H](NC(=O)[C@@H](N)CC(=O)O)CSSC[C@@H](C(=O)N[C@H](C(N)=O)[C@@H](C)O)NC(=O)[C@H](Cc2c[nH]c3ccccc23)NC(=O)[C@H](C(C)C)NC1=O [GFc-C35-3/15 (T5S), DCSYTNGNLVWCT] (H-DCSYTNGNLVWCT-NH2; disulfide 2-12) | 120 | – | –
CC(C)C[C@@H]1NC(=O)[C@H](CC(N)=O)NC(=O)CNC(=O)[C@H](CC(N)=O)NC(=O)[C@H](Cc2c[nH]cn2)NC(=O)[C@H](Cc2ccc(O)cc2)NC(=O)[C@H]([C@@H](C)O)NC(=O)[C@@H](NC(=O)[C@@H](N)CC(=O)O)CSSC[C@@H](C(=O)N[C@H](C(N)=O)[C@@H](C)O)NC(=O)[C@H](Cc2c[nH]c3ccccc23)NC(=O)[C@H](C(C)C)NC1=O [GFc-C35-3/15 (T7H), DCTYHNGNLVWCT] (H-DCTYHNGNLVWCT-NH2; disulfide 2-12) | 3 | – | –
CC(C)C[C@@H]1NC(=O)[C@H](CC(N)=O)NC(=O)CNC(=O)[C@H](CCCNC(=N)N)NC(=O)[C@H](Cc2c[nH]cn2)NC(=O)[C@H](Cc2ccc(O)cc2)NC(=O)[C@H]([C@@H](C)O)NC(=O)[C@@H](NC(=O)[C@@H](N)CC(=O)O)CSSC[C@@H](C(=O)N[C@H](C(N)=O)[C@@H](C)O)NC(=O)[C@H](Cc2c[nH]c3ccccc23)NC(=O)[C@H](C(C)C)NC1=O [GFc-C35-3/15 (T7H, N8R), DCTYHRGNLVWCT] (H-DCTYHRGNLVWCT-NH2; disulfide 2-12) | 1.1 | – | –
CC(C)C[C@@H]1NC(=O)[C@H](CCC(=O)O)NC(=O)CNC(=O)[C@H](CCCNC(=N)N)NC(=O)[C@H](Cc2c[nH]cn2)NC(=O)[C@H](Cc2ccc(O)cc2)NC(=O)[C@H]([C@@H](C)O)NC(=O)[C@@H](NC(=O)[C@@H](N)CC(=O)O)CSSC[C@@H](C(=O)N[C@H](C(N)=O)[C@@H](C)O)NC(=O)[C@H](Cc2c[nH]c3ccccc23)NC(=O)[C@H](C(C)C)NC1=O [GFc-C35-3/15 (T7H, N8R, N10E), DCTYHRGELVWCT] (H-DCTYHRGELVWCT-NH2; disulfide 2-12) | 0.27 | – | affinity compared with the parent peptide, in words (compared with GFc-C35-3/15 (T7H, N8R)): affinity-enhancing effect
